The subject of one data set is CT26 cells. Nature of the data set: In vitro cytotoxicity in CT26 cells (CCK-8). The data set is classed as cell-based, mouse. On the procedure: Specifically, 5×10^3 CT26 cells were inoculated on 100 μL of DMEM and a Roswell Park Memorial Institute (RPMI) medium, respectively supplemented with 10% (v/v) FBS and 1% penicillin/streptomycin. […] DL and CD were also treated in the same volume and each of the concentrations. After 24 hours of the culturing, 10 μL of a WST-8 solution [2-2-methoxy-4-nitrophenyl)-3-(4-nitrophenyl)-5-(2,4-disulfophenyl)-2H-tetrazolium monosodium salt] was diluted with 100 μL of each medium, followed by culturing for 2 hours. Then, absorbance was measured using a microplate reader (PerkinElmer multimode plate reader) at 450 nm. Percentages of viable cells are shown by comparing the number of treated cells with that of untreated cells.

Data set [1] can be described thus: Pharmacokinetics of OP (platinum) in rats, repeated oral dosing. In kind it is in vivo, SD rats. On the procedure:
After SD rats were orally administered with various concentrations of ODSF repeatedly, the rats were divided into 5 groups (4 rats per group) to evaluate pharmacokinetic properties of OP. The rats were orally administered with a daily dose of 400 μL of OP (10) (OP dispersed in water, 10 mg/kg) or ODSF (2.5), ODSF (10), and ODSF (20) (containing 2.5 mg/kg, 10 mg/kg, and 20 mg/kg OP, respectively), for 14 days. […] Plasma concentrations of OP were measured based on the platinum concentration, after decomposition with nitric acid at 100° C., by inductively coupled plasma-mass spectroscopy (ICP-MS) at a high frequency power of 1450 W, at a coolant flow rate of 12 L/min, at an axillary flow rate of 2.3 L/min, and at a nebulizer flow rate of 0.89 L/min.
Plasma profiles of not only OP in water (10 mg/kg) [OP (10)] but also ODSF including 2.5 mg/kg, 10 mg/kg, and 20 mg/kg OP [ODSF (2.5), ODSF (10), and ODSF (20), respectively] were identified after 2-week continuous metronomic administration in comparison with a single IV bolus dose of 5 mg/kg OP [OP-IV (5)] administered on day 1 and day 14.

The nature of the next data set: in vivo. Conditions: SD, rat.
Setting [2] is: oral once a day 14 days, 10 mg/kg OP.

In brackets after ≈: the same amount, converted by molar mass.

Compound `COC(=O)[C@H](CCCCN)NC(=O)CC[C@@H](C)[C@H]1CC[C@H]2[C@@H]3CC[C@@H]4C[C@H](O)CC[C@]4(C)[C@H]3C[C@H](O)[C@]12C` [DL, N^α-deoxycholyl-I-lysyl-methylester] displayed a Cell viability with CT26 cells (CT26, carrier amount matching maximum SIMVA concentration of 200 μg/mL) of 77.1%.

Turning to `O=C1[O][Pt]2([NH][C@@H]3CCCC[C@H]3[NH]2)[O]C1=O` [OP, oxaliplatin], in data set [1] (IV, 5 mg/kg OP), the “AUCinf, on day 14” value was found to be 8120 ± 2470 ng·h/mL; the “AUClast, on day 14” value worked out at 5460 ± 1460 ng·h/mL; the “Cmax, on day 14” value worked out at 1060 ± 337 ng/mL. In data set [1] (IV, 5 mg/kg OP (reference)), the Bioavailability worked out at 100%. Also, the “T1/2, on day 14” value in data set [1] (IV, 5 mg/kg OP on day 1 and day 14, platinum, n=4) amounted to 15.8 ± 1.32 h. For the same compound, in data set [1] (setting [2]), the “AUCinf, on day 14” value is 1500 ± 196 ng·h/mL; the “AUClast, on day 14” value was 775 ± 124 ng·h/mL; the Bioavailability was 7.09 ± 1.14%; the “Cmax, on day 14” value is 53 ± 14 ng/mL. In addition, in data set [1] (setting [2]), the “T1/2, on day 14” value amounted to 23.7 ± 0.723 h and the “Tmax, on day 14” value came out at 0.833 ± 0.289 h.

As a reminder, the half-life is the time in which the quantity being followed falls by half. The low end stands for rapid decline, the high end for slow decline. In the case of `CCC(C)(C)C(=O)O[C@H]1C[C@@H](C)C=C2C=C[C@H](C)[C@H](CC[C@@H]3C[C@@H](O)CC(=O)O3)[C@H]21` [SIMVA in DMSO (50), simvastatin], the half-life in “in vivo” (plasma, po, 50 mg/kg) is 1.22 h.

A word on the Tmax: it is the time from dosing to the highest level. Take `CCC(C)(C)C(=O)O[C@H]1C[C@@H](C)C=C2C=C[C@H](C)[C@H](CC[C@@H]3C[C@@H](O)CC(=O)O3)[C@H]21` [SIMVA, simvastatin]: in the data set with CT26 cells (Mus musculus, CT26, 24 h, read-out: IC50 (concentration of a drug required to kill 50% of cells)), the IC50 was 183 µg/mL (≈ 437 µM). In the data set “in vivo” (in vivo, po, 50 mg/kg), this compound gave a half-life of 1.6 h. For the same compound, the Tmax in “in vivo” (plasma, po, 50 mg/kg) was 1.5 h.

Take `CCC(C)(C)C(=O)O[C@H]1C[C@@H](C)C=C2C=C[C@H](C)[C@H](CC[C@@H]3C[C@@H](O)CC(=O)O3)[C@H]21` [SIMVA-IP (10), simvastatin]: in the data set “in vivo” (plasma, ip, 10 mg/kg), the Tmax stood at 0.5 h and the half-life is 0.54 h.

Consider `CCC(C)(C)C(=O)O[C@H]1C[C@@H](C)C=C2C=C[C@H](C)[C@H](CC[C@@H]3C[C@@H](O)CC(=O)O3)[C@H]21` [SIMVA-IV (10), simvastatin], for which the half-life in “in vivo” (plasma, iv, 10 mg/kg) is 0.39 h.

Source of the values: patent US20260157964A1, “LIPOPHILIC STATIN COMPOSITION WITH IMPROVED SOLUBILITY AND PERMEABILITY AND USES THEREOF” (KOREA INSTITUTE OF SCIENCE AND TECHNOLOGY, priority 2021, published 2026).
